According to the NIST ThermoML archive (doi:10.1021/je900550v):

Test: refractive index (Na D-line) (dimensionless)
Details: 101.33 kPa, Liquid, Standard Abbe refractometry

C[NH2+]CCO.O=C[O-] [2-hydroxy-N-methylethanaminium formate]
Details | refractive index
288.35 K | 1.4485
293.15 K | 1.447
298.35 K | 1.4458
303.15 K | 1.4446
308.23 K | 1.4429
313.1 K | 1.4418
318.15 K | 1.4406
322.85 K | 1.4396

CC(C)C(=O)[O-].C[NH2+]CCO [2-hydroxy-N-methylethanaminium isobutyrate]
Details | refractive index
288.11 K | 1.4539
293.15 K | 1.4525
298.05 K | 1.4511
303.05 K | 1.4496
308.05 K | 1.4481
313.05 K | 1.4463
318.08 K | 1.4448
323.15 K | 1.4433

CCCCC(=O)[O-].C[NH2+]CCO [2-hydroxy-N-methylethanaminium pentanoate]
Details | refractive index
288.15 K | 1.4568
293.12 K | 1.4554
298.19 K | 1.4538
303.15 K | 1.4524
308.18 K | 1.4508
313.25 K | 1.4492
318.15 K | 1.4474
323.18 K | 1.4461

CCC(=O)[O-].C[NH2+]CCO [2-hydroxy-N-methylethanaminium propionate]
Details | refractive index
288.15 K | 1.4561
293.2 K | 1.4548
298.2 K | 1.4534
303.15 K | 1.452
308.15 K | 1.4507
313.18 K | 1.4492
318.15 K | 1.4478
323.15 K | 1.4464

CC(=O)[O-].C[NH2+]CCO [N-methyl-2-hydroxyethylammonium acetate]
Details | refractive index
288.25 K | 1.4518
293.23 K | 1.4506
298.15 K | 1.4494
303.13 K | 1.4483
308.13 K | 1.447
313.05 K | 1.4457
318.13 K | 1.4445
323.1 K | 1.4433

CCCC(=O)[O-].C[NH2+]CCO [N-methyl-2-hydroxyethylammonium butanoate]
Details | refractive index
288.15 K | 1.4579
293.15 K | 1.4564
298.15 K | 1.4549
303.15 K | 1.4534
308.15 K | 1.452
313.15 K | 1.4504
318.15 K | 1.4488
323.15 K | 1.4471
